Results published in publication PMC5736629, “Allosteric modulation of protein-protein interactions by individual lipid binding events” (Nature Communications, 2017).
Like-named read-outs stand apart in the source and are kept apart here.

How the values were obtained:
GlnK = target: GlnK; set-up: method as in earlier work; details: 298K, absence of detergent, ref 2 (supplement), cited from earlier work
AmtB = target: T1, AmtB (Escherichia coli, UniProt P69681); assay: Native MS lipid titration, lipid binding to AmtB (equilibrium-coupled binding model); details: 50 µM ADP, 298 K
T1 construct: pelB signal peptide (N, cleaved yes); 10x His-tag (N, cleaved yes); made in house; host or cells: Escherichia coli C41(DE3), pET15b
T1 sequence (P69681 23-428): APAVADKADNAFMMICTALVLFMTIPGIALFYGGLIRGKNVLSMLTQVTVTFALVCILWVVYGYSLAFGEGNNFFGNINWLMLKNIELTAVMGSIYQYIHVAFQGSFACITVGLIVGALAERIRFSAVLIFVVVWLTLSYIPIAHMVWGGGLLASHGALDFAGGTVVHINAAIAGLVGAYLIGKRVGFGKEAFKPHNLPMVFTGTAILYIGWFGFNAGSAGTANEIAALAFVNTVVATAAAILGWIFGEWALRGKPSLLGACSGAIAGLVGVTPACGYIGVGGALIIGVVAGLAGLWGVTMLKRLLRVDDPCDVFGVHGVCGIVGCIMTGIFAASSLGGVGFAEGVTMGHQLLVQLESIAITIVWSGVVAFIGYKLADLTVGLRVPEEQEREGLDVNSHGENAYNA
Procedure: (§1) A stock of ADP was prepared by dissolving the ammonium salt form of ADP in water followed by adjusting the pH with ammonium hydroxide to 7.0. Serial dilutions into MS buffer (200 mM ammonium acetate, 0.5% C8E4, and pH adjusted to 7.4 with ammonium hydroxide) supplemented with 5 mM BME was performed to prepare ADP at certain concentrations. Phospholipids were prepared as previously described. In brief, stock solutions of each phospholipid were resuspended in chloroform, aliqouted, and chloroform was removed by a steady stream on nitrogen gas. Lipid films were placed under vacuum overnight to prepare to resuspend in MS buffer supplemented with 5 mM 2-mercaptoethanol. Phospholipid concentration was determined by phosphorus analysis.

AmtB–GlnK interaction = target: T2, AmtB–GlnK interaction (Escherichia coli, UniProt P69681); assay: Native MS lipid titration, GlnK binding to apo or lipid-bound AmtB; coupling factors (allosteric modulation); details: for Kd: 50 µM ADP, 298 K; for Coupling factor a1: first bound lipid; for Coupling factor a2: second bound lipid; for Coupling factor a3: third bound lipid; for allosteric modulation of AmtB–GlnK (from coupling factors): result in words
T2 construct: pelB signal peptide (N, cleaved yes); 10x His-tag (N, cleaved yes); made in house; host or cells: AmtB: Escherichia coli C41(DE3), pET15b; stGlnK: Escherichia coli ArcticExpress (DE3) RIL, pET28b
T2 sequence (P0AC55 whole entry Y51F): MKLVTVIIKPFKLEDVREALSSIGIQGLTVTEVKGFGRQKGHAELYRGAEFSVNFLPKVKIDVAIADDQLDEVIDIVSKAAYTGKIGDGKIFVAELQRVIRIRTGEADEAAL
T2 sequence (P69681 23-428): as the sequence (P69681 23-428) above
Procedure: as §1

AmtB–GlnK complex = target: T3, AmtB–GlnK complex (Escherichia coli, UniProt P69681); assay: Native MS lipid titration, lipid binding to AmtB–GlnK (equilibrium-coupled binding model); details: 50 µM ADP, 298 K
T3 construct: pelB signal peptide (N, cleaved yes); 10x His-tag (N, cleaved yes); made in house; host or cells: AmtB: Escherichia coli C41(DE3), pET15b; stGlnK: Escherichia coli ArcticExpress (DE3) RIL, pET28b
T3 sequence (P0AC55 whole entry Y51F): as the sequence (P0AC55 whole entry Y51F) above
T3 sequence (P69681 23-428): as the sequence (P69681 23-428) above
Procedure: as §1

[1] = KD,AL1, first lipid binding to AmtB
[2] = KD,AL2, second lipid binding to AmtB
[3] = KD,AL3, third lipid binding to AmtB
[4] = KD,AG, GlnK binding apo AmtB, from global fit of the titration with the named lipid
[5] = KD,AL2G, GlnK binding AmtB bound to 2 lipids
[6] = KD,AL3G, GlnK binding AmtB bound to 3 lipids
[7] = KD,ALG, GlnK binding AmtB bound to 1 lipid
[8] = KD,AGL1, first lipid binding to AmtB–GlnK
[9] = KD,AGL2, second lipid binding to AmtB–GlnK
[10] = KD,AGL3, third lipid binding to AmtB–GlnK

Compound | Kd (GlnK; read-out: KD for GlnK binding the first ADP molecule) [µM] | Kd (GlnK; read-out: KD for GlnK binding the second ADP molecule) [µM] | Kd (GlnK; read-out: KD for GlnK binding the third ADP molecule) [µM] | Kd (AmtB; [1]) [µM] | Kd (AmtB; [2]) [µM] | Kd (AmtB; [3]) [µM] | Kd (AmtB–GlnK interaction; [4]) [nM] | Kd (AmtB–GlnK interaction; [5]) [nM] | Kd (AmtB–GlnK interaction; [6]) [nM] | Kd (AmtB–GlnK interaction; [7]) [nM] | Coupling factor a1 (AmtB–GlnK interaction) | Coupling factor a2 (AmtB–GlnK interaction) | Coupling factor a3 (AmtB–GlnK interaction) | Kd (AmtB–GlnK complex; [8]) [µM] | Kd (AmtB–GlnK complex; [9]) [µM] | Kd (AmtB–GlnK complex; [10]) [µM] | allosteric modulation of AmtB–GlnK (from coupling factors) (AmtB–GlnK interaction)
Nc1ncnc2c1ncn2[C@@H]1O[C@H](COP(=O)(O)OP(=O)(O)O)[C@@H](O)[C@H]1O [ADP, adenosine diphosphate] | 20 | 56 | 100 |  |  |  |  |  |  |  |  |  |  |  |  |  | 
CCCCCCCCCCCC(=O)OC[C@H](COP(=O)(O)OCC(O)CO)OC(=O)CCCCCCCCCCC (stereo partly shown) [DLPG] |  |  |  | 22.5 ± 3.23 | 39.1 ± 9.25 | 34.03 ± 0.15 | 522 ± 25.8 | 313 ± 43.5 | 271 ± 53.9 | 401 ± 14.8 | 1.30 ± 0.04 | 1.35 ± 0.26 | 1.19 ± 0.15 | 17.1 ± 1.96 | 28.6 ± 3.98 | 29.1 ± 2.27 | 
CCCCCCCCCCCCCC(=O)OC[C@H](COP(=O)(O)OCC(O)CO)OC(=O)CCCCCCCCCCCCC (stereo partly shown) [DMPG] |  |  |  | 6.78 ± 0.19 | 14.6 ± 1.2 | 20.27 ± 0.12 | 551 ± 13.4 | 543 ± 38.7 | 523 ± 28.4 | 561 ± 23.5 | 0.99 ± 0.05 | 1.04 ± 0.04 | 1.04 ± 0.02 | 6.92 ± 0.33 | 14.1 ± 0.35 | 19.6 ± 0.33 | neutral allosteric modulation
CCCCCCCC/C=C\CCCCCCCC(=O)OC[C@H](COP(=O)(O)OCCN)OC(=O)CCCCCCC/C=C\CCCCCCCC [DOPE (cis)] |  |  |  | 15.1 ± 0.63 | 36.9 ± 2.85 | 57.6 ± 13.3 | 517 ± 50.4 | 315 ± 26.9 | 206 ± 62.1 | 421 ± 37.5 | 1.23 ± 0.02 | 1.34 ± 0.10 | 1.71 ± 0.31 | 12.3 ± 0.39 | 27.6 ± 1.09 | 32.9 ± 2.11 | 
CCCCCCCC/C=C/CCCCCCCC(=O)OC[C@H](COP(=O)(O)OCCN)OC(=O)CCCCCCC/C=C/CCCCCCCC [DOPE (trans)] |  |  |  | 29.7 ± 2.18 | 159 ± 57.3 |  | 556 ± 32.7 | 121 ± 25.6 |  | 356 ± 14.1 | 1.57 ± 0.14 | 3.29 ± 0.82 | 5.28 ± 1.82 | 19 ± 0.42 | 46 |  | greater positive allosteric modulation
CCCCCCCCCCCCCCCC(=O)OC[C@H](COP(=O)(O)OCC(O)CO)OC(=O)CCCCCCCCCCCCCCC (stereo partly shown) [DPPG] |  |  |  | 18.5 ± 1.85 | 63.8 ± 13.2 | 99.8 ± 45.3 | 521 ± 15.8 | 230 ± 55.9 | 164 ± 72.1 | 424 ± 36.1 | 1.25 ± 0.10 | 1.98 ± 0.32 | 1.66 ± 0.33 | 14.8 ± 0.64 | 31.7 ± 1.89 | 53.4 ± 16.6 | 
